A value given as a limit tells only on which side of the number the result lay.

This assay deals with T1, human ENT1 (Homo sapiens, UniProt Q99808).
T1 sequence (Q99808 1-456): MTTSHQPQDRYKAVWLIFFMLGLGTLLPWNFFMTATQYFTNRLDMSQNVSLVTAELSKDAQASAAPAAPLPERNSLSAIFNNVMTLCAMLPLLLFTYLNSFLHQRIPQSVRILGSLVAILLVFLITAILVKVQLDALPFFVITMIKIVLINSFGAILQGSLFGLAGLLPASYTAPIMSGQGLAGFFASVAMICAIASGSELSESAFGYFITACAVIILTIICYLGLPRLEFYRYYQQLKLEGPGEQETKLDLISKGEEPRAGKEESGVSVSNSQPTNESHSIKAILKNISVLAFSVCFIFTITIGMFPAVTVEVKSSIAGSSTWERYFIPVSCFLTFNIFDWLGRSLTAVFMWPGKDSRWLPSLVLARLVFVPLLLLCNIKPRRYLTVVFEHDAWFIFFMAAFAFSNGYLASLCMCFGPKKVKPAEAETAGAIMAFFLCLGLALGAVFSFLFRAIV
As to the kind of experiment: ENT1 binding assay (competition with Sahenta-DY647 on JAR cells). More on the design: JAR cells expressing ENT1 were bought from ATCC; host or cells: JAR cells. The conditions noted are these: binned IC50. The method, boiled down:
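JAR cells were incubated with test compounds and the fluorescent ligand Sahenta-DY647 in competition. Plates were washed twice by centrifugation (4 min, 400 rcf, 4 °C). Binding potency was derived from the final fluorescence.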
What is called IC50 is the concentration at which inhibition is half-maximal. `COCCN(CCOC)c1nc(N2CCN(c3ncn(C)n3)CC2)c2nc(N(CCOC)CCOC)nc(NCc3ccc(F)c(C#N)c3)c2n1` [Compound 225, 5-(((2,6-bis(bis(2-methoxyethyl)amino)-8-(4-(1-methyl-1H-1,2,4-triazol-3-yl)piperazin-1-yl)pyrimido[5,4-d]pyrimidin-4-yl)amino)methyl)-2-fluorobenzonitrile]: the IC50 is less than 100 nM.

`COCCN(CCOC)c1nc(N2CC(CO)C2)c2nc(N(CCOC)CCOC)nc(N3CCC(OC)CC3)c2n1` [Compound 92, (1-(2,6-bis(bis(2-methoxyethyl)amino)-8-(4-methoxypiperidin-1-yl)pyrimido[5,4-d]pyrimidin-4-yl)azetidin-3-yl)methanol] had an IC50 of 100 to 500 nM. With `COCCN(CCOC)c1nc(N2CCC(OC)CC2)c2nc(N3CCN(S(C)(=O)=O)CC3)nc(N3CCC(OC)CC3)c2n1` [Compound 30, N,N-bis(2-methoxyethyl)-4,8-bis(4-methoxypiperidin-1-yl)-6-(4-(methylsulfonyl)piperazin-1-yl)pyrimido[5,4-d]pyrimidin-2-amine] the figure was 500 to 1000 nM; with `COCCN(CCOC)c1nc(N2CCC(OC)CC2)c2nc(N(CCOC)CCOC)nc(NCc3cc(C)no3)c2n1` [Compound 162, N2,N2,N6,N6-tetrakis(2-methoxyethyl)-8-(4-methoxypiperidin-1-yl)-N4-((3-methylisoxazol-5-yl)methyl)pyrimido[5,4-d]pyrimidine-2,4,6-triamine], 500 to 1000 nM; with `COCCN(CCOC)c1nc(N2CCC(F)(F)CC2)c2nc(N(CCOC)CCOC)nc(N3CCC(OC)CC3)c2n1` [Compound 200, 4-(4,4-difluoropiperidin-1-yl)-N2,N2,N6,N6-tetrakis(2-methoxyethyl)-8-(4-methoxypiperidin-1-yl)pyrimido[5,4-d]pyrimidine-2,6-diamine], less than 100 nM. With `COCCN(CCOC)c1nc(N2CCC(OC)CC2)c2nc(N3CCn4nncc4C3)nc(N3CCN(C)C(=O)C3)c2n1` [Compound 287, 4-(6-(bis(2-methoxyethyl)amino)-2-(6,7-dihydro-[1,2,3]triazolo[1,5-a]pyrazin-5(4H)-yl)-8-(4-methoxypiperidin-1-yl)pyrimido[5,4-d]pyrimidin-4-yl)-1-methylpiperazin-2-one] the figure was 100 to 500 nM.

For `COCCN(CCOC)c1nc(N2CCN(c3ncn(C)n3)CC2)c2nc(N(CCOC)CCOC)nc(NCc3cccc(C(N)=O)c3)c2n1` [Compound 229, 3-(((2,6-bis(bis(2-methoxyethyl)amino)-8-(4-(1-methyl-1H-1,2,4-triazol-3-yl)piperazin-1-yl)pyrimido[5,4-d]pyrimidin-4-yl)amino)methyl)benzamide], the IC50 is 100 to 500 nM. As for `COCCN(CCOC)c1nc(N2CCC(OC)CC2)c2nc(N(CCOC)CCOC)nc(NCc3cccc(-n4cccn4)c3)c2n1` [Compound 146, N4-(3-(1H-pyrazol-1-yl)benzyl)-N2,N2,N6,N6-tetrakis(2-methoxyethyl)-8-(4-methoxypiperidin-1-yl)pyrimido[5,4-d]pyrimidine-2,4,6-triamine], the figure is 100 to 500 nM; as for `COCCN(CCO)c1nc(N2CCN(C)C(=O)C2)c2nc(N(CCO)CCOC)nc(N3CCC(OC)CC3)c2n1` [Compound 306, 4-(2,6-bis((2-hydroxyethyl)(2-methoxyethyl)amino)-8-(4-methoxypiperidin-1-yl)pyrimido[5,4-d]pyrimidin-4-yl)-1-methylpiperazin-2-one], 100 to 500 nM; as for `COCCN(CCOC)c1nc(N2CCN(C)C(=O)C2)c2nc(N3CCn4ccnc4C3)nc(N3CCC(OC)CC3)c2n1` [Compound 296, 4-(2-(bis(2-methoxyethyl)amino)-6-(5,6-dihydroimidazo[1,2-a]pyrazin-7(8H)-yl)-8-(4-methoxypiperidin-1-yl)pyrimido[5,4-d]pyrimidin-4-yl)-1-methylpiperazin-2-one], 100 to 500 nM. On to `COCCN(CCOC)c1nc(N2CCC(OC)CC2)c2nc(N(CCOC)CCOC)nc(NCc3cccc(-c4ncco4)c3)c2n1` [Compound 151, N2,N2,N6,N6-tetrakis(2-methoxyethyl)-8-(4-methoxypiperidin-1-yl)-N4-(3-(oxazol-2-yl)benzyl)pyrimido[5,4-d]pyrimidine-2,4,6-triamine], for which the IC50 was 100 to 500 nM.

For `COCCN(CCOC)c1nc(N2CCn3cncc3C2)c2nc(N(CCOC)CCOC)nc(N3CCC(OC)CC3)c2n1` [Compound 114, 4-(5,6-dihydroimidazo[1,5-a]pyrazin-7(8H)-yl)-N2,N2,N6,N6-tetrakis(2-methoxyethyl)-8-(4-methoxypiperidin-1-yl)pyrimido[5,4-d]pyrimidine-2,6-diamine], the IC50 was less than 100 nM.

In turn, `COCCN(CCOC)c1nc(N2CCN(C)C(=O)C2)c2nc(N3CCN(S(C)(=O)=O)CC3)nc(N3CCC(OC)CC3)c2n1` [Compound 279, 4-(2-(bis(2-methoxyethyl)amino)-8-(4-methoxypiperidin-1-yl)-6-(4-(methylsulfonyl)piperazin-1-yl)pyrimido[5,4-d]pyrimidin-4-yl)-1-methylpiperazin-2-one] returned an IC50 of 100 to 500 nM. With `COCCN(CCOC)c1nc(N2CCCN(C(C)=O)CC2)c2nc(N(CCOC)CCOC)nc(N3CCC(OC)CC3)c2n1` [Compound 98, 1-(4-(2,6-bis(bis(2-methoxyethyl)amino)-8-(4-methoxypiperidin-1-yl)pyrimido[5,4-d]pyrimidin-4-yl)-1,4-diazepan-1-yl)ethanone] the figure was 100 to 500 nM. As for `COCCN(CCOC)c1nc(N2CCN(c3ncccn3)CC2)c2nc(N(CCOC)CCOC)nc(N3CCC(OC)CC3)c2n1` [Compound 119, N2,N2,N6,N6-tetrakis(2-methoxyethyl)-4-(4-methoxypiperidin-1-yl)-8-(4-(pyrimidin-2-yl)piperazin-1-yl)pyrimido[5,4-d]pyrimidine-2,6-diamine], the figure is 500 to 1000 nM; as for `COCCN(CCOC)c1nc(N2CCC(OC)CC2)c2nc(N(CCOC)CCOC)nc(NCc3ccccc3)c2n1` [Compound 49, N4-benzyl-N2,N2,N6,N6-tetrakis(2-methoxyethyl)-8-(4-methoxypiperidin-1-yl)pyrimido[5,4-d]pyrimidine-2,4,6-triamine], less than 100 nM; as for `COCCN(CCOC)c1nc(N2CCC(OC)CC2)c2nc(N(CCOC)CCOC)nc(NCCCn3ccnc3)c2n1` [Compound 176, N4-(3-(1H-imidazol-1-yl)propyl)-N2,N2,N6,N6-tetrakis(2-methoxyethyl)-8-(4-methoxypiperidin-1-yl)pyrimido[5,4-d]pyrimidine-2,4,6-triamine], 500 to 1000 nM. As for `COCCN(Cc1ccc(OC)c(OC)c1OC)c1nc(N2CCN(C)C(=O)C2)c2nc(N(CCO)CCO)nc(N3CCC(OC)CC3)c2n1` [Compound 305, 4-(6-(bis(2-hydroxyethyl)amino)-2-((2-methoxyethyl)(2,3,4-trimethoxybenzyl)amino)-8-(4-methoxypiperidin-1-yl)pyrimido[5,4-d]pyrimidin-4-yl)-1-methylpiperazin-2-one], the figure is less than 100 nM. Take `COCCN(CCOC)c1nc(N2CCCC(F)(F)C2)c2nc(N(CCOC)CCOC)nc(N3CCCC(F)(F)C3)c2n1` [Compound 33, 4,8-bis(3,3-difluoropiperidin-1-yl)-N2,N2,N6,N6-tetrakis(2-methoxyethyl)pyrimido[5,4-d]pyrimidine-2,6-diamine]: the IC50 is less than 100 nM. `COCCN(CCOC)c1nc(N2CCC(OC)CC2)c2nc(N(CCOC)CCOC)nc(OCc3cnn(C(C)C)c3)c2n1` [Compound 164, 4-((1-isopropyl-1H-pyrazol-4-yl)methoxy)-N2,N2,N6,N6-tetrakis(2-methoxyethyl)-8-(4-methoxypiperidin-1-yl)pyrimido[5,4-d]pyrimidine-2,6-diamine]: the IC50 was in the range of 500 to 1000 nM. As for `COCCN(CCOC)c1nc(N2CCc3oncc3C2)c2nc(N(CCOC)CCOC)nc(N3CCN(C)C(=O)C3)c2n1` [Compound 261, 4-(2,6-bis(bis(2-methoxyethyl)amino)-8-(6,7-dihydroisoxazolo[4,5-c]pyridin-5(4H)-yl)pyrimido[5,4-d]pyrimidin-4-yl)-1-methylpiperazin-2-one], the figure is less than 100 nM. With `COCCN(CCOC)c1nc(N2CCc3cn[nH]c3C2)c2nc(N(CCOC)CCOC)nc(N3CCN(C)C(=O)C3)c2n1` [Compound 259, 4-(2,6-bis(bis(2-methoxyethyl)amino)-8-(1,4,5,7-tetrahydro-6H-pyrazolo[3,4-c]pyridin-6-yl)pyrimido[5,4-d]pyrimidin-4-yl)-1-methylpiperazin-2-one] the figure was less than 100 nM; with `COCCN(CCOC)c1nc(N2CCN(c3ncn(C)n3)CC2)c2nc(N(CCOC)CCOC)nc(NCC(C)C)c2n1` [Compound 219, N4-isobutyl-N2,N2,N6,N6-tetrakis(2-methoxyethyl)-8-(4-(1-methyl-1H-1,2,4-triazol-3-yl)piperazin-1-yl)pyrimido[5,4-d]pyrimidine-2,4,6-triamine], 100 to 500 nM; with `CCCN(C)c1nc(N(CCOC)CCOC)nc2c(N3CCN(C)C(=O)C3)nc(N(CCOC)CCOC)nc12` [Compound 191, 4-(2,6-bis(bis(2-methoxyethyl)amino)-8-(methyl(propyl)amino)pyrimido[5,4-d]pyrimidin-4-yl)-1-methylpiperazin-2-one], 100 to 500 nM.

The values are drawn from patent US20230146675A1, “PYRIMIDO[5,4-d]PYRIMIDINE DERIVATIVES AS ENT INHIBITORS FOR THE TREATMENT OF CANCERS, AND COMBINATION THEREOF WITH ADENOSINE RECEPTOR ANTAGONISTS” (ITEOS BELGIUM SA, priority 2020, published 2023).
